Test results as given in patent publication EP1724268A1, “COMPOUND HAVING TGF-BETA INHIBITORY ACTIVITY AND PHARMACEUTICAL COMPOSITION CONTAINING SAME” (KIRIN BEER KABUSHIKI KAISHA, priority 2004, dated 2005).
Like-named read-outs stand apart in the source and are kept apart here.

How the values were obtained:
A549 cells = test: Cell growth inhibitory activity using A549 cells (Test Example 6); assay type: cell-based, Human; settings: for inhibition at 30 µM: Homo sapiens, A549, compound 30 µM, 5% serum, 40 hr, counting kit-8, read-out: Cell growth inhibition rate (%); for inhibitory activity against cell growth of A549 cells: as compared with Example 274 described in WO 03/00660; for inhibitory activity against cell growth or BMP4 signals: as compared with Example 261 or Example 269 described in WO 03/00660
Procedure: Human lung cancer epithelial cells (A549) (available from ATCC) were suspended to a concentration of 3 × 10^4/ml in a DMEM/F12 medium containing 10%FCS, and the suspension was inoculated in 100 µl portions in wells of a 96-well plate. On the following day, a stock solution of the test compound which had been adjusted to 10 mM with DMSO was adjusted with a serum-free DMEM/F12 medium to a dose (60 µM) which was twice the evaluation concentration. After removing the medium inoculated in the 96 wells on the previous day, the solution was added in 50 µl portions to the plate. Next, a DMEM/F12 medium containing 10% serum was added in 50 µl portions to the wells, followed by culturing at 37°C for 40 hr. The final concentration of the serum and the concentration of the evaluation compound were 5% and 30 µM, respectively. The compounds according to the present invention synthesized in the working example were used as the test compound. […]
After 40 hr, the culture was removed, and 100 µl of a solution prepared by diluting counting kit-8 (purchased from Dojindo) with a serum-free F12 medium by 10 times was added, followed by culturing at 37°C for 20 to 30 min. After the confirmation of suitable color development, the absorbance at 450 nm was measured with ARVO (purchased from Wallach Bethold Japan). The cell growth inhibition in the test compound added wells were determined by presuming the absorbance value in the test compound-free wells to be 0% and the absorbance value in the cell-free wells to be 100%.

TGFβ signal = TGFβ signal inhibitory activity, (SBE)4-Luc reporter in A549 cells (Test Examples 1A and 1B); assay type: cell-based, human; settings: Homo sapiens
Method in brief: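 Stable A549 line carrying (SBE)4-Luc Smad3-binding reporter treated with compound plus TGFβ-1 (2 ng/ml) for 4 hr; luciferase read by chemiluminescence. Percent inhibition relative to TGFβ-only and untreated cells, tested at 3 µM and 10 µM, some also at 1 µM.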

BMP4 signal = test: BMP signal inhibitory activity, p(GCCG)12-Luc reporter in HepG2 cells (Test Example 7); assay type: cell-based, human; settings: for inhibitory activity against BMP4 signals: as compared with Example 274 described in WO 03/00660
Description: The inhibitory activity of the compounds according to the present invention against BMP signals was studied using a cell line through which TGFb and BMP signals can be simultaneously observed. Specifically, the cell lines capable of detecting the two signal was generated by transfecting reporter plasmids for detection of TGFb and BMP signals into a human hepatocarcinoma cell line HepG2(available from ATCC) and was used as evaluation cells. For detection of TGF-beta signal, the plasmid having four tandem binding sequences of Smad2/3, TGF-beta signal transducers, to the upstream of a luciferases gene were used as a reporter plasmid (p(SBE)4-Luc/hygro). For detection of BMP signal, the plasmid having twelve tandem binding sequences of Smadl/5/8, BMP signal transducers, to the upstream of a luciferases gene were used as a reporter plasmid (p(GCCG)12-Luc/neo), according to the method described in Mol Biol Cell. 2000 11(2): 555-65. The test compound and TGFβ-1 (2 ng/ml) or BMP4 (20 ng/ml) were added to the cells, and the mixture was cultured for 4 hr. The compounds according to the present invention synthesized in the working example were used as the test compound. […] After the culture, the luciferase activity of the cells was measured by chemiluminescence (Steady Glo (trademark) luciferase assay system, available from Promega). Likewise, the luciferase activity was measured as control for the culture of cells with only TGFβ or BMP4 added thereto and the culture of cells with the addition of none of TGFβ, BMP4 and the test compound. The inhibitory activity IC50 of the compounds against TGFβ and BMP4 was calculated based on the results of measurement, and the kinase selectivity for BMP4 was determined by the following method. Kinase selectivity for BMP4 (times) = Inhibitory activity against BMP4 signal (IC50)/Inhibitory activity against TGFβ signal (IC50)

[1] = A549, test compound 3 µM, TGFβ-1 2 ng/ml, 4 hr, Table 1A, read-out: TGFβ inhibition rate, %
[2] = A549, test compound 10 µM, TGFβ-1 2 ng/ml, 4 hr, Table 1A, read-out: TGFβ inhibition rate, %
[3] = A549, 3 µM, compounds of Reference Examples (Test Example 1B), read-out: TGFβ inhibition rate, %
[4] = A549, 10 µM, compounds of Reference Examples (Test Example 1B), read-out: TGFβ inhibition rate, %
[5] = A549, test compound 3 µM, Reference Examples, Table 1B, read-out: TGFβ inhibition rate, %
[6] = A549, test compound 10 µM, Reference Examples, Table 1B, read-out: TGFβ inhibition rate, %

SMILES | inhibition at 3 µM (TGFβ signal; [1]) [%] | inhibition at 3 µM (TGFβ signal; [3]) [%] | inhibition at 10 µM (TGFβ signal; [4]) [%] | further results
CCc1ccc(Oc2ccnc3ccc(OCCN)cc23)c(-c2ncccn2)n1 [Compound 204, 2-[4-(6-Ethyl-2-pyrimidin-2-yl-pyridin-3-yloxy)-quinolin-6-yloxy]-ethylamine] | 84 |  |  | inhibition at 30 µM (A549 cells): -9%; inhibitory activity against cell growth of A549 cells (A549 cells): reduced inhibitory activity; inhibitory activity against BMP4 signals (BMP4 signal): reduced inhibitory activity
Cc1ccc(Oc2ccnc3ccc(OCCO)cc23)c(-c2ccccn2)n1 [Compound 205, 2-[4-(6-Methyl-[2,2']bipyridyl-3-yloxy)-quinolin-6-yloxy]-ethanol] | 98 |  |  | inhibition at 30 µM (A549 cells): 9%; inhibitory activity against cell growth or BMP4 signals (A549 cells): reduced inhibitory activity
Cc1cc(Oc2ccnc3ccc(OCCO)cc23)c(-c2ncccn2)nc1C [Compound 200, 2-[4-(5,6-Dimethyl-2-pyrimidin-2-yl-pyridin-3-yloxy)-quinolin-6-yloxy]-ethanol] | 85 |  |  | inhibition at 30 µM (A549 cells): 0%; inhibitory activity against cell growth of A549 cells (A549 cells): reduced inhibitory activity; Selectivity for BMP (times) (BMP4 signal; Inhibitory activity against BMP4 signal (IC50)/Inhibitory activity against TGFβ signal (IC50), HepG2 reporter cells, BMP4 20 ng/ml, TGFβ-1 2 ng/ml, 4 hr): 75 times; inhibitory activity against BMP4 signals (BMP4 signal): reduced inhibitory activity
Cc1ccc(Oc2ccnc3cc(C(N)=O)ccc23)c(-c2ncccn2)n1 [Compound 217, 4-(6-Methyl-2-pyrimidin-2-yl-pyridin-3-yloxy)-quinoline-7-carboxylic acid amide] | 90 |  |  | inhibition at 30 µM (A549 cells): 4%; inhibitory activity against cell growth of A549 cells (A549 cells): reduced inhibitory activity; inhibition at 10 µM (TGFβ signal; [2]): 100%; inhibitory activity against BMP4 signals (BMP4 signal): reduced inhibitory activity
CCc1ccc(Oc2ccnc3ccc(OC(C)=O)cc23)c(-c2ccccn2)n1 [Compound 186, 4-(6-Ethyl-[2,2']bipyridinyl-3-yloxy)-quinolin-6-ylacetate] | 100 |  |  | inhibition at 30 µM (A549 cells): -2%; inhibition at 10 µM (TGFβ signal; [2]): 100%
CCc1ccc(Oc2ccnc3cc(C(N)=O)c(OC)cc23)c(-c2ccccn2)n1 [Compound 179, 4-(6-Ethyl-[2,2']bipyridinyl-3-yloxy)-6-methoxy-quinoline-7-carboxylic acid amide] | 100 |  |  | inhibition at 30 µM (A549 cells): -3%; inhibitory activity against cell growth or BMP4 signals (A549 cells): reduced inhibitory activity; inhibition at 10 µM (TGFβ signal; [2]): 100%
COc1cc2nccc(Oc3ccc(C)nc3-c3cc(C)n(C)n3)c2cc1OC [Compound r256, 4-[2-(1,5-Dimethyl-1H-pyrazol-3-yl)-6-methyl-pyridin-3-yloxy]-6,7-dimethoxy-quinoline] |  | 98 | 100 | 
COc1cc2nccc(Oc3cc4ccccc4cc3C(C)=O)c2cc1OC [Compound r200, 1-[3-(6,7-Dimethoxy-quinolin-4-yloxy)-naphthalene-2-yl]-ethanone] |  | 94 | 100 | 
COc1cc2c(Oc3cc4ccccc4nc3C)ccnc2cc1OCCCl [Compound r353] |  | 54 | 86 | 
Cc1cc(Oc2ccnc3cc(-c4cc5ccccc5o4)ccc23)c(-c2ccccn2)nc1C [Compound 173, 3-(7-Benzofuran-2-yl-quinolin-4-yloxy)-5,6-dimethyl-[2,2']bipyridine] | 57 |  |  | inhibition at 10 µM (TGFβ signal; [2]): 92%
COc1ccc2ncnc(Oc3cc4cccnc4nc3-c3ccccc3)c2c1 [Compound 70, 6-Methoxy-4-(2-phenyl-[1,8]naphthyridin-3-yloxy)-quinazoline] | 61 |  |  | inhibition at 10 µM (TGFβ signal; [2]): 95%
COc1ccc2nccc(Oc3cc4cccnc4nc3-c3ccccc3)c2c1 [Compound 55, 3-(6-Methoxy-quinolin-4-yloxy)-2-phenyl-[1,8]naphthyridine] | 94 |  |  | inhibition at 10 µM (TGFβ signal; [2]): 100%
CCOC(=O)C1CCCN(CCOc2cc3nccc(Oc4cc5ccccc5nc4C)c3cc2OC)C1 (stereo not drawn) [Compound r361] |  | 96 | 100 | 
COc1cc2nccc(Oc3ccc(Cl)nc3)c2cc1OC [r206] |  | 69 | 94 | 
COc1cc2nccc(Oc3ccc(C)nc3-c3ccc(Cl)cc3)c2cc1OC [Compound r252] |  | 16 | 78 | 
COc1cc2c(Oc3cc4cccnc4nc3C)ccnc2cc1OCCCl [Compound r398] |  | 78 | 97 | 
Cc1ccc(-c2ccc3c(Oc4cc(C)c(C)nc4-c4ccccn4)ccnc3c2)cc1 [Compound 20, 5,6-Dimethyl-3-(7-p-tolyl-quinolin-4-yloxy)-[2,2']bipyridine] | 90 |  |  | inhibition at 10 µM (TGFβ signal; [2]): 100%
COc1cc2nccc(Oc3cc4cccnc4nc3-c3ccc(C)cc3)c2cc1OC [r428] |  | 67 |  | 
Cc1ccc(Oc2ccnc3ccc(OCCCCl)cc23)c(-c2ncccn2)n1 [Compound 210, 6-(3-Chloro-propoxy)-4-(6-methyl-2-pyrimidin-2-yl-pyridin-3-yloxy)-quinoline] | 87 |  |  | 
COc1cc2nccc(Oc3ccc(C)nc3C#C[Si](C)(C)C)c2cc1OC [r212] |  | 94 | 100 | 
CCOC(=O)c1cc(I)ccc1Oc1ccnc2cc(OC)c(OC)cc12 [Compound r86] |  |  |  | inhibition at 3 µM (TGFβ signal; [5]): 68%; inhibition at 10 µM (TGFβ signal; [6]): 99%
COc1cc2c(Oc3cc4cnccc4nc3C)ccnc2cc1OCc1ccccc1 [Compound r406] |  | 56 | 96 | 
COc1cc2nccc(Oc3ccc(C)cc3-c3cccnc3)c2cc1OC [r168] |  | 22 | 74 | 
COc1cc2nccc(Oc3ccc(C)cc3C(=O)c3ccccc3)c2cc1OC [r72] |  |  |  | inhibition at 3 µM (TGFβ signal; A549, read-out: TGFβ inhibition rate, %): 98%
COc1cc2c(Oc3cc(C)c(C)nc3-c3ccc(C)cn3)ccnc2cc1O [Compound r453] |  | 72 | 98 | 
COc1cc2nccc(Oc3ccc(C)cc3C(C)=O)c2cc1OC [Compound r35] |  |  |  | inhibition at 3 µM (TGFβ signal; [5]): 49%; inhibition at 10 µM (TGFβ signal; [6]): 89%
COc1cc2c(Oc3cc(C)c(C)nc3-c3ccc(C)cn3)ccnc2cc1OCC(O)CO (stereo not drawn) [Compound r463] |  | 77 | 99 | 
